Where two headings read alike, the source gives them in different places.
Assays:
Ovcar3-GTL catenae = assay: Ovcar3-GTL catena drug sensitivity / proliferation screen (alamarBlue, 384-well)
Description: Cells were resuspended in M5-FCS to produce homogenous cultures of single cells which were seeded in 50 μL aliquots per well at the indicated cell densities and grown for the indicated times before addition of test compounds or other reagents.
For these experiments, 25 Ovcar3-GTL catena or 250 Ovcar3-GTL catena cells were seeded per well as described above. […] Five days after adding the test compound, alamarBlue® was added to the cultures and culture absorbance was measured 48 hours later.
The assays were conducted on catena cells with or without a glycocalyx coat and the IC50 values were determined.
Each compound was tested against three cellular entities (catena cells with or without the coat and established tumor spheroids) at 5 μM, 0.2 μM and 0.008 μM of compounds (with replicates).

[1] = test system: Ovcar5 monolayer (mesenchymal) cells; assay: Ovarian cancer monolayer drug sensitivity (alamarBlue), Ovcar5; format: cell-based; settings: 25 cells seeded; drugs added 4 days after seeding; read-out: IC50 (μM) Ovcar5 monolayer
Description: (§1) The foregoing total of 29 compounds were tested in parallel on ovarian cancer monolayer cells by seeding 100 Ovcar3 monolayer (epithelial) or 25 Ovcar5 monolayer (mesenchymal) cells in 384-well plates. Drugs were added 4 days after cell seeding and cell viability was analyzed by alamarBlue staining. In general, catena cells with an established glycocalyx were on average 4-8 fold more resistant to these compounds when compared to monolayers. […]

[2] = test system: Ovcar3 monolayer (epithelial) cells; assay: Ovarian cancer monolayer drug sensitivity (alamarBlue), Ovcar3; format: cell-based; settings: 100 cells seeded; drugs added 4 days after seeding; read-out: IC50 (μM) Ovcar3 monolayer
Description: as §1

catena cells = assay: Morphological observation of treated catenae under the microscope; format: cell-based; settings: 100 μM (rapamycin 25 μM, lovastatin acid 50 μM); cells re-entered the cell cycle without drug
[3] = increased resistance of catena cells with glycocalyx coat versus no coat
[4] = read-out: IC50 (μM) No coat, pathway-specific inhibitors; catena cells without glycocalyx coat
[5] = read-out: IC50 (μM) With coat; pathway-specific inhibitors; catena cells with glycocalyx coat
[6] = ratio of IC50 day 6 to day 1, Ovcar3-GTL catenae
[7] = read-out: IC50 (μM) Addition on Day 1; Ovcar3-GTL catenae; compound added one day after seeding (cells predominantly lacking a glycocalyx)
[8] = read-out: IC50 (μM) Addition on Day 6; Ovcar3-GTL catenae; compound added six days after seeding (established or substantial glycocalyx)
[9] = read-out: IC50 (μM) With coat, pathway-specific inhibitors; catena cells with glycocalyx coat

**Q.** `Cc1[nH]c2ccccc2c1CCNCc1ccc(/C=C/C(=O)NO)cc1` [LBH-589 (Panobinostat), Panobinostat] was tested. Which Fold resistance (Ovcar3-GTL catenae; [3]) did it give?
**A.** 4 fold

**Q.** And the IC50 (Ovcar3-GTL catenae; [4])?
**A.** 0.01 µM

**Q.** And the IC50 (Ovcar3-GTL catenae; [5])?
**A.** 0.05 µM

**Q.** For iso-oxazole-fludelone, which IC50 [1] is on record?
**A.** 0.012 µM

**Q.** And the IC50 [2]?
**A.** 0.05 µM

**Q.** What about the “cells seen in cultures treated with high concentrations of compounds” value (catena cells) of the same compound?
**A.** live, large single cells, i.e., cells arrested at mitosis

**Q.** What about the “Increased Resistance of catena” value (Ovcar3-GTL catenae; catena with established glycocalyx versus monolayers) of the same compound?
**A.** 2,000 fold

**Q.** What about the “Increase in Resistance Day6/Day 1” value (Ovcar3-GTL catenae; [6]) of the same compound?
**A.** 33,333 fold

**Q.** What about the IC50 (Ovcar3-GTL catenae; [7]) of the same compound?
**A.** 0.003 µM

**Q.** And the IC50 (Ovcar3-GTL catenae; [8])?
**A.** > 100 µM

**Q.** For `Cn1cc(C2=C(c3ccc(Cl)cc3Cl)C(=O)NC2=O)c2ccccc21` [SB 216763], which IC50 (Ovcar3-GTL catenae; [4]) is on record?
**A.** > 25 µM

**Q.** What about the IC50 (Ovcar3-GTL catenae; [9]) of the same compound?
**A.** > 25 µM

**Q.** What does the source list for `OCCn1cc(-c2cnc3nnn(Cc4ccc5ncccc5c4)c3n2)cn1` [PF-04217903]?
**A.** IC50 (Ovcar3-GTL catenae; [4]): > 25 µM; IC50 (Ovcar3-GTL catenae; [5]): > 25 µM

**Q.** Which results are given for `O=C(/C=C/c1ccc(CN(CCO)CCc2c[nH]c3ccccc23)cc1)NO` [LAQ824 (NVP-LAQ824, Dacinostat), Dacinostat]?
**A.** Fold resistance (Ovcar3-GTL catenae; [3]): 16 fold; IC50 (Ovcar3-GTL catenae; [4]): 0.01 µM; IC50 (Ovcar3-GTL catenae; [9]): < 0.2 µM; IC50 (Ovcar3-GTL catenae; [5]): 0.2 µM

**Q.** Which “Increase in Resistance Day6/Day 1” value (Ovcar3-GTL catenae; [6]) does the source give for `CO[C@@]12[C@H](COC(N)=O)C3=C(C(=O)C(C)=C(N)C3=O)N1C[C@@H]1N[C@@H]12` [mitomycin-C] here?
**A.** 60 fold

**Q.** What about the IC50 (Ovcar3-GTL catenae; [7]) of the same compound?
**A.** 0.05 µM

**Q.** What about the IC50 (Ovcar3-GTL catenae; [8]) of the same compound?
**A.** 3 µM

**Q.** What does the source list for `COc1cc2nccc(Oc3ccc(NC(=O)Nc4cc(C)on4)c(Cl)c3)c2cc1OC` [AV-951 (Tivozanib), Tivozanib]?
**A.** IC50 (Ovcar3-GTL catenae; [4]): 13.4 µM; IC50 (Ovcar3-GTL catenae; [9]): > 25 µM

**Q.** For `CC1(C)CNc2cc(NC(=O)c3cccnc3NCc3ccncc3)ccc21` [Motesanib Diphosphate (AMG-706), Motesanib Diphosphate], which IC50 (Ovcar3-GTL catenae; [4]) is on record?
**A.** > 25 µM

**Q.** And the IC50 (Ovcar3-GTL catenae; [9])?
**A.** > 25 µM

**Q.** `O=c1cc(N2CCOCC2)oc2c(-c3ccccc3)cccc12` [LY294002] was tested. Which IC50 (Ovcar3-GTL catenae; 24 h, read-out: IC50 (μM) Addition on Day 1, Ovcar3-GTL catenae; compound added one day after seeding (cells predominantly lacking a glycocalyx)) did it give?
**A.** 25 µM

**Q.** What about the IC50 (Ovcar3-GTL catenae; 144 h, read-out: IC50 (μM) Addition on Day 6, Ovcar3-GTL catenae; compound added six days after seeding (established or substantial glycocalyx)) of the same compound?
**A.** > 100 µM

**Q.** What about the “Increase in Resistance Day6/Day 1” value (Ovcar3-GTL catenae; [6]) of the same compound?
**A.** 4 fold

**Q.** How did the Fold resistance (Ovcar3-GTL catenae; [3]) turn out when `FC(F)c1nc2ccccc2n1-c1nc(N2CCOCC2)nc(N2CCOCC2)n1` [ZSTK474] was run?
**A.** >8 fold

**Q.** And the IC50 (Ovcar3-GTL catenae; [4])?
**A.** 3.14 µM

**Q.** What about the IC50 (Ovcar3-GTL catenae; [9]) of the same compound?
**A.** > 25 µM

**Q.** Which results are given for `Cc1ccc(NC(=O)c2ccc(CN3CCN(C)CC3)cc2)cc1Nc1nc(-c2cccnc2)cs1` [Masitinib (AB1010), Masitinib]?
**A.** IC50 (Ovcar3-GTL catenae; [4]): 13.4 µM; IC50 (Ovcar3-GTL catenae; [9]): 13.4 µM

From patent publication US20150030583A1, “Methods of Treating Serosal Cancer” (SLOAN KETTERING INSTITUTE FOR CANCER RESEARCH, priority 2011, published 2015)
